In patent publication US11161830B2, “4-pyridone compound or salt thereof, and pharmaceutical composition and formulation including same” (priority 2017, dated 2021):
Like-named read-outs stand apart in the source and are kept apart here.

Columns and labels:
Format in all cases: cell-based, hepatitis B virus
HBV (genotype AeUS) = assay: Test Example 2-1: anti-HBV assay in PXB-cells (fresh human hepatocytes); settings: Hepatitis B virus, Hepatocyte, PXB-cells infected with HBV genotype AeUS, culture supernatant on day 32 post infection
Method: Using fresh human hepatocytes (PXB-cells, manufactured by PhenixBio Co., Ltd.) collected from a PXB mouse (a chimeric mouse with human hepatocytes), the anti-HBV activity of the representative compounds was evaluated in the following procedure.
(§1) The following was used as a medium:
DMEM (manufactured by Sigma)+0.25 μg/mL insulin (manufactured by Wako)+1% penicillin/streptomycin. (manufactured by Sigma)+20 mmol/L HEPES (manufactured by Sigma)+15 μg/mL L-proline (manufactured by Sigma)+50 nmol/L dexamethasone (manufactured by Sigma)+5 ng/mL EGF (manufactured by Peprotech)+0.1 mmol/L ascorbic acid 2-phosphate (manufactured by Wako)+10% FBS+2% DMSO
Each of the test compounds) was further added to the medium to prepare a test solution containing each of the test compounds at various concentrations.
(1) PXB-cells seeded at a seeding density of 2.1×10^5 cells/cm^2 in a 96-well microliter plate were incubated in a 5% CO2 incubator at 37° C. until a day on which the cells were infected.
(2) HBV (genotype AeUS) derived from a PXB mouse serum was suspended in the medium containing 4% PEG-8000, and added to the plate of (1) at about 10 copies/cell such that the PXB cells were infected (100 μL/well), and the plate was incubated in a 5% CO2 incubator at 37° C. for 1 day.
(3) The culture supernatant on day 1 post infection was removed and the cells were washed three times with DMEM containing 10% FBS and 1% penicillin/streptomycin. Then, the medium was added to the plate (100 μL/well) and the plate was incubated in a 5% CO2 incubator at 37° C. for 1 day.
(4) The culture supernatant on day 2 post infection was removed and the cells were washed three times with DMEM containing 10% FBS and 1% penicillin/streptomycin. Then, the medium was added to the plate (100 μL/well) and the plate was incubated in a 5% CO2 incubator at 37° C. for 5 days.
(5) The culture supernatant on day 7 post infection was removed, the medium was added to the plate (100 μL/well), and the plate was incubated in a 5% CO2 incubator at 37° C. for 5 days.
(6) The culture supernatant on day 12 post infection was removed, the medium was added to the plate (100 μL/well), and the plate was incubated in a 5% CO2 incubator at 37° C. for 5 days.
(§2) (7) The culture supernatant on day 17 post infection was removed, the test solution was added to the plate (100 μL/well), and the plate was incubated in a 5% CO2 incubator at 37° C. for 5 days. As a control without the compound added, the medium was added to the plate (100 μL/well) and the plate was incubated in a 5% CO2 incubator at 37° C. for 5 days.
as §2, with “(8)” for “(7)”, “22” for “17”
as §2, with “(9)” for “(7)”, “27” for “17”
(10) The culture supernatant on day 32 post infection was collected.
(11) The collected culture supernatant on day 32 post infection was purified with a QIAamp (registered trademark) DNA Blood Mini Kit (manufactured by QIAGEN). The amount of HBV-DNA in the obtained solution was absolutely quantified by a real-time PCR method. In addition, the amount of HBsAg in the culture supernatant was absolutely quantified by chemiluminescent enzyme immunoassay using Lumipulse (registered trademark) HBsAg-HQ (manufactured by Fujirebio Inc.). A relative viral load (%) with respect to a control without the compound added was each calculated. […]

HBV [1] = assay: Test Example 1-1: anti-HBV assay in HepG2.2.15 cells (test solution 200 μL/well); settings: Hepatitis B virus, culture supernatant
Method: (§3) Using HepG2.2.15 cells (Proc. Natl. Acad. Sci. USA, 84, 1005-1009, 1987) which have an HBV genome introduced into a hepatoblastoma cell line, HepG2, and persistently produce a virus, the anti-HBV activity of the representative compounds was evaluated in the following procedure.
as §1
(§4) DMEM/F-12, GlutaMAX (manufactured by Invitrogen)+5 μg/mL insulin (manufactured by Wako)+1% penicillin/streptomycin (manufactured by Sigma)+10 mmol/L HEPES (manufactured by Sigma)+50 μmol/L hydrocortisone (manufactured by Sigma)+10% FBS
(§5) A mixture of a test compound with dimethyl sulfoxide (DMSO) was further added to the medium to obtain a final concentration of DMSO of 0.25% (v/v), and thus, test solutions containing the test compound at various concentrations were prepared. In addition, a test solution obtained by adding DMSO alone to the medium to obtain a final concentration of 0.25% (v/v) was prepared as a control without addition of a drug.
(§6) (1) The HepG2.2.15 cells were suspended in the medium to prepare a. HepG2.2.15 cell suspension at 4×10^5 cells/mL. The suspension was seeded in a 96-well microtiter plate (100 μL/well) and the plate was incubated in a 5% CO2 incubator at 37° C. for 2 days.
(§7) (2) The culture supernatant was removed and the cells were washed twice with PBS (−) (100 μL/well).
(§8) (3) The test solution (200 μL/well) was added to the plate of (2) and the plate was incubated in a 5% CO2 incubator at 37° C. for 4 days.
(§9) (4) The culture supernatant was removed, the test solution (200 μL/well) was added again to the plate, and the plate was incubated in a 5% CO2 incubator at 37° C. for 3 days.
(§10) (5) The culture supernatant was collected and treated with a mixture of Buffer AL (manufactured by QIAGEN) and Proteinase K (manufactured by Invitrogen). The amount of DNA of HBV (HBV-DNA) in the obtained solution was absolutely quantified by a real-time PCR method. In addition, HBsAg (hepatitis B surface antigen) in the culture supernatant was absolutely quantified by chemiluminescent enzyme immunoassay using Lumipulse (registered trademark) HBsAg-HQ (manufactured by Fujirebio Inc.). The relative viral load (%) of a well with the compound added to a well without the compound added was calculated. An IC50 of the compound was calculated using a FORECAST function (linear regression method) of Microsoft Office Excel 2007 by plotting the logarithm of the concentration against the relative viral load as a real number.
(§11) The IC50 of HBV-DNA was defined as a concentration (or a logarithm dilution of the culture supernatant) of the compound, in which the amount of HBV-DNA is reduced by 50% as compared a control without the compound added.
(§12) In addition, the IC50 of HBsAg was defined as a concentration (or a logarithm dilution of the culture supernatant) of the compound, in which the amount of HBsAg is reduced by 50% as compared a control without the compound added.

HBV [2] = assay: Test Example 1-2: anti-HBV assay in HepG2.2.15 cells (test solution 100 μL/well); settings: culture supernatant
Method: as §3, §1, §4, §5, §6, §7, §8, §9, §10, §11, §12
The test was performed by the same method as in Test Example 1-1 except that the amounts of the test solutions of (3) and (4) of Test Example 1-1 was changed to 100 μL/well.

[3] = Hepatitis B virus, read-out: IC50 HBV-DNA
[4] = Hepatitis B virus, read-out: IC50 HBsAg

For `COCCO[C@@H]1CCN(c2ccc(-c3cc(=O)c(C(=O)O)cn3-c3ccc4nc(C)sc4c3)cc2)C1` [Example 9, (R)-6-(4-(3-(2-Methoxyethoxy)pyrrolidin-1-yl)phenyl)-1-(2-methylbenzo[d]thiazol-6-yl)-4-oxo-1,4-dihydropyridine-3-carboxylic acid], the IC50 (HBV (genotype AeUS); read-out: IC50 HBV-DNA) was 580 nM, the IC50 (HBV (genotype AeUS); read-out: IC50 HBsAg) was 330 nM and the IC50 (HBV [1]; read-out: IC50 HBV-DNA) was 55 nM. It also gave an IC50 (HBV [1]; read-out: IC50 HBsAg) of 24 nM.

`CO[C@@H]1CCN(c2ccc(-c3cc(=O)c(C(=O)O)cn3-c3ccc4nc(N5CCOCC5)sc4c3)cc2Cl)C1` [Example 11, (R)-6-(3-Chloro-4-(3-methoxypyrrolidin-1-yl)phenyl)-1-(2-morpholinobenzo[d]thiazol-6-yl)-4-oxo-,4-dihydropyridine-3-carboxylic acid] gave an IC50 (HBV (genotype AeUS); read-out: IC50 HBV-DNA) of 28 nM, an IC50 (HBV (genotype AeUS); read-out: IC50 HBsAg) of 82 nM and an IC50 (HBV [1]; read-out: IC50 HBV-DNA) of 13 nM. The IC50 (HBV [1]; read-out: IC50 HBsAg) was 4.9 nM.

`Cc1nc2ccc(-n3cc(C(=O)O)c(=O)cc3-c3ccc(N4CCCC4)c(C#N)c3)cc2s1` [Example 16, 6-(3-Cyano-4-(pyrrolidin-1-yl)phenyl)-1-(2-methylbenzo[d]thiazol-6-yl)-4-oxo-1,4-dihydropyridine-3-carboxylic acid] was tested, and the IC50 (HBV (genotype AeUS); read-out: IC50 HBV-DNA) was 470 nM, the IC50 (HBV (genotype AeUS); read-out: IC50 HBsAg) was 190 nM and the IC50 (HBV [1]; read-out: IC50 HBV-DNA) was 18 nM. The IC50 (HBV [1]; read-out: IC50 HBsAg) was 15 nM.

`COCCO[C@@H]1CCN(c2ccc(-c3cc(=O)c(C(=O)O)cn3-c3ccc4nc(N5CC[C@H](OC)C5)sc4c3)cc2)C1` [Example 21, 6-(4-((R)-3-(2-Methoxyethoxy)pyrrolidin-1-yl)phenyl)-1-(2-((S)-3-methoxypyrrolidin-1-yl)benzo[d]thiazol-6-yl)-4-oxo-1,4-dihydropyridine-3-carboxylic acid] gave an IC50 (HBV [2]; [3]) of 8.3 nM and an IC50 (HBV [2]; [4]) of 17 nM.

`COCCO[C@H]1CCN(c2ccc(-c3cc(=O)c(C(=O)O)cn3-c3ccc4nc(N5CCOCC5)sc4c3)cc2)C1` [Example 22-1, (S)-6-(4-(3-(2-methoxyethoxy)pyrrolidin-1-yl)phenyl)-1-(2-morpholinobenzo[d]thiazol-6-yl)-4-oxo-1,4-dihydropyridine-3-carboxylic acid] showed an IC50 (HBV [2]; [3]) of 44 nM and an IC50 (HBV [2]; [4]) of 89 nM.

`COCCO[C@H]1CCN(c2ccc(-c3cc(=O)c(C(=O)O)cn3-c3ccc4nc(N5CCC[C@@H]5COC)sc4c3)cc2)C1` [Example 22-2, 6-(4-((S)-3-(2-methoxyethoxy)pyrrolidin-1-yl)phenyl)-1-(2-((R)-2-(methoxymethyl)pyrrolidin-1-yl)benzo[d]thiazol-6-yl)-4-oxo-1,4-dihydropyridine-3-carboxylic acid] showed an IC50 (HBV [2]; [3]) of 10 nM and an IC50 (HBV [2]; [4]) of 22 nM.

`CO[C@@H]1CCN(c2ccc(-c3cc(=O)c(C(=O)O)cn3-c3ccc4nc(N5CC[C@H](N6CCOCC6)C5)sc4c3)cc2F)C1` [Example 23-1, 6-(3-fluoro-4-((R)-3-methoxypyrrolidin-1-yl)phenyl)-1-(2-((S)-3-morpholinopyrrolidin-1-yl)benzo[d]thiazol-6-yl)-4-oxo-1,4-dihydropyridine-3-carboxylic acid] showed an IC50 (HBV [2]; [3]) of 1.7 nM and an IC50 (HBV [2]; [4]) of 4.3 nM.

`CO[C@@H]1CCN(c2ccc(-c3cc(=O)c(C(=O)O)cn3-c3ccc4nc(N5CC(OC(F)F)C5)sc4c3)cc2F)C1` [Example 23-2, (R)-1-(2-(3-(difluoromethoxy)azetidin-1-yl)benzo[d]thiazol-6-yl)-6-(3-fluoro-4-(3-methoxypyrrolidin-1-yl)phenyl)-4-oxo-1,4-dihydropyridine-3-carboxylic acid] was tested, and the IC50 (HBV [2]; [3]) was 0.96 nM and the IC50 (HBV [2]; [4]) was 2.8 nM.

With `CO[C@@H]1CCN(c2ccc(-c3cc(=O)c(C(=O)O)cn3-c3ccc4nc(N5CC(OCC6CCCO6)C5)sc4c3)cc2F)C1` (stereo partly drawn) [Example 23-3, 6-(3-fluoro-4-((R)-3-methoxypyrrolidin-1-yl)phenyl)-4-oxo-1-(2-(3-((tetrahydrofuran-2-yl)methoxy)azetidin-1-yl)benzo[d]thiazol-6-yl)-1,4-dihydropyridine-3-carboxylic acid] the IC50 (HBV [2]; [3]) was 0.61 nM and the IC50 (HBV [2]; [4]) was 1.7 nM.

Work on `CO[C@@H]1CCN(c2ccc(-c3cc(=O)c(C(=O)O)cn3-c3ccc4nc(N5CC(OCCF)C5)sc4c3)cc2F)C1` [Example 23-4] yielded an IC50 (HBV [2]; read-out: IC50 HBV-DNA) of 0.88 nM and an IC50 (HBV [2]; read-out: IC50 HBsAg) of 3.8 nM.

Work on `COCCCOC1CN(c2nc3ccc(-n4cc(C(=O)O)c(=O)cc4-c4ccc(N5CC[C@@H](OC)C5)c(F)c4)cc3s2)C1` [Example 23-5] yielded an IC50 (HBV [2]; read-out: IC50 HBV-DNA) of 0.5 nM and an IC50 (HBV [2]; read-out: IC50 HBsAg) of 2.7 nM.

`CCOC1CN(c2nc3ccc(-n4cc(C(=O)O)c(=O)cc4-c4ccc(N5CC[C@@H](OC)C5)c(F)c4)cc3s2)C1` [Example 23-6, (R)-1-(2-(3-ethoxyazetidin-1-yl)benzo[d]thiazol-6-yl)-6-(3-fluoro-4-(3-methoxypyrrolidin-1-yl)phenyl)-4-oxo-1,4-dihydropyridine-3-carboxylic acid] gave an IC50 (HBV [2]; [3]) of 0.45 nM and an IC50 (HBV [2]; [4]) of 1.1 nM.

Compound `CO[C@@H]1CCN(c2ccc(-c3cc(=O)c(C(=O)O)cn3-c3ccc4nc(N5CC(OC(C)C)C5)sc4c3)cc2F)C1` [Example 23-7, (R)-6-(3-fluoro-4-(3-methoxypyrrolidin-1-yl)phenyl)-1-(2-(3-isopropoxyazetidin-1-yl)benzo[d]thiazol-6-yl)-4-oxo-1,4-dihydropyridine-3-carboxylic acid] has an IC50 (HBV [2]; [3]) of 0.65 nM and an IC50 (HBV [2]; [4]) of 1.1 nM.
